Test results published in PubChem BioAssay AID256 (DTP/NCI, 2004).
Where “and” joins values, the source holds several entries; their conditions need not be identical. Identical values can stand only once. Toxic doses and inconclusive results are not listed. Residues, ends and D or L forms follow the SMILES beside them. *: point of attachment. Trt = c1ccc(C(c2ccccc2)(c2ccccc2)*)cc1; Boc = CC(C)(C)OC(=O)*

Test system: CD2F1 mice, L1210 leukemia ip, survival T/C
Assay: NCI In Vivo Anticancer Drug Screen. Data for tumor model L1210 Leukemia (intraperitoneal) in CD2F1 (CDF1) mice
Conditions: higher = longer survival
In short: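 Each value reflects a quotient of treated over vehicle control outcomes in mice with a transplanted tumor.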

[1] = endpoint: mean survival time, dose: 100.0 mg/kg/injection, schedule: Q04DX002 (ip), vehicle: saline with Tween-80
[2] = endpoint: mean survival time, dose: 200.0 mg/kg/injection, schedule: Q04DX002 (ip), vehicle: saline with Tween-80
[3] = endpoint: mean survival time, dose: 100.0 mg/kg/injection, schedule: Q01DX001 (ip), vehicle: saline with Tween-80
[4] = endpoint: mean survival time, dose: 200.0 mg/kg/injection, schedule: Q01DX001 (ip), vehicle: saline with Tween-80
[5] = endpoint: mean survival time, dose: 400.0 mg/kg/injection, schedule: Q01DX001 (ip), vehicle: saline with Tween-80
[6] = endpoint: mean survival time, dose: 50.0 mg/kg/injection, schedule: Q01DX009 (ip), vehicle: saline with Tween-80
[7] = endpoint: mean survival time, dose: 100.0 mg/kg/injection, schedule: Q01DX009 (ip), vehicle: saline with Tween-80
[8] = endpoint: mean survival time, dose: 200.0 mg/kg/injection, schedule: Q01DX009 (ip), vehicle: saline with Tween-80
[9] = endpoint: mean survival time, dose: 400.0 mg/kg/injection, schedule: Q01DX009 (ip), vehicle: saline with Tween-80
[10] = endpoint: mean survival time, dose: 25.0 mg/kg/injection, schedule: Q01DX009 (ip), vehicle: saline with Tween-80
[11] = endpoint: mean survival time, dose: 25.0 mg/kg/injection, schedule: Q04DX003 (ip), vehicle: saline with Tween-80
[12] = endpoint: mean survival time, dose: 50.0 mg/kg/injection, schedule: Q04DX003 (ip), vehicle: saline with Tween-80
[13] = endpoint: mean survival time, dose: 100.0 mg/kg/injection, schedule: Q04DX003 (ip), vehicle: saline with Tween-80
[14] = endpoint: mean survival time, dose: 100.0 mg/kg/injection, schedule: Q01DX009 (ip), vehicle: acetone

With CCC1NC(=O)C(NC(=O)c2ncccc2O)C(C)OC(=O)C(c2ccccc2)NC(=O)C2CC(=O)CCN2C(=O)C(Cc2ccccc2)N(C)C(=O)C2CCCN2C1=O (configuration not stated) the T/C [1] was 108 % of control and the T/C [2] was 108 % of control.

For O=C(NC1CCCC2CCCCC21)c1ccccc1 (configuration not stated), the T/C [3] was 90 % of control, the T/C [4] was 88 % of control and the T/C [5] was 90 % of control.

CSc1nc(=O)[nH]c2c1c1c(N)ncnc1n2C1OC(CO)C(O)C1O (configuration not stated) was tested, and the T/C (endpoint: mean survival time, dose: 12.5 mg/kg/injection, schedule: Q01DX005 (ip), vehicle: distilled water + Tween-80) was 104 % of control, the T/C (endpoint: mean survival time, dose: 25.0 mg/kg/injection, schedule: Q01DX005 (ip), vehicle: distilled water + Tween-80) was 97 % of control and the T/C (endpoint: mean survival time, dose: 50.0 mg/kg/injection, schedule: Q01DX005 (ip), vehicle: distilled water + Tween-80) was 104 % of control. The T/C (endpoint: mean survival time, dose: 100.0 mg/kg/injection, schedule: Q01DX005 (ip), vehicle: distilled water + Tween-80) was 100 % of control and the T/C (endpoint: mean survival time, dose: 200.0 mg/kg/injection, schedule: Q01DX005 (ip), vehicle: distilled water + Tween-80) was 104 % of control.

For CC(O)(c1ccccc1)C(CCl)N1CCCCC1 (configuration not stated), the T/C [6] was 95 % of control, the T/C [7] was 97 % of control and the T/C [8] was 91 % of control.

In the case of O=C(/C=C/c1ccccc1Cl)c1ccccc1[N+](=O)[O-], the T/C [7] is reported as 89 % of control, the T/C [8] is reported as 94 % of control and the T/C [9] is reported as 95 % of control.

For CC(=O)Nc1cc(CN2CCCCC2)c(O)c2ncccc12, the T/C (endpoint: mean survival time, dose: 75.0 mg/kg/injection, schedule: Q01DX001 (ip), vehicle: other) was 102 % of control and the T/C (endpoint: mean survival time, dose: 150.0 mg/kg/injection, schedule: Q01DX001 (ip), vehicle: other) was 102 % of control.

CC(C)(C)OC(=O)NCCCCC(NC(=O)CNC(=O)C(CSC(c1ccccc1)(c1ccccc1)c1ccccc1)NC(=O)OC(C)(C)C)C(=O)O (configuration not stated) (Boc-Cys(Trt)-Gly-Lys(Boc)-OH; configuration not given here) was tested, and the T/C (endpoint: mean survival time, dose: 100.0 mg/kg/injection, schedule: Q04DX003 (ip), vehicle: saline sonified) was 86 % of control.

For CCOc1ccc(Nc2ncnc3nc[nH]c23)cc1CN(CCCl)CCCl, the T/C (endpoint: mean survival time, dose: 2.0 mg/kg/injection, schedule: Q01DX009 (ip), vehicle: saline sonified) was 116 % of control, the T/C (endpoint: mean survival time, dose: 4.0 mg/kg/injection, schedule: Q01DX009 (ip), vehicle: saline sonified) was 117 % of control and the T/C (endpoint: mean survival time, dose: 8.0 mg/kg/injection, schedule: Q01DX009 (ip), vehicle: saline sonified) was 116 % of control.

In the case of CNN(C)N=Nc1ccc(C(N)=O)cc1, the T/C (endpoint: mean survival time, dose: 19.75 mg/kg/injection, schedule: Q01DX009 (ip), vehicle: Klucel (hydroxypropylcellulose) (HPC)) is reported as 110 % of control, the T/C (endpoint: mean survival time, dose: 39.5 mg/kg/injection, schedule: Q01DX009 (ip), vehicle: Klucel (hydroxypropylcellulose) (HPC)) is reported as 118 % of control and the T/C (endpoint: mean survival time, dose: 79.0 mg/kg/injection, schedule: Q01DX009 (ip), vehicle: Klucel (hydroxypropylcellulose) (HPC)) is reported as 93 % of control.

CN(N)c1cccc2c1CCCC2 was tested, and the T/C [10] was 106 % of control, the T/C [11] was 97 % of control and the T/C [6] was 103 % of control. The T/C [12] was 102 % of control, the T/C [7] was 105 % of control and the T/C [13] was 93 % of control and 102 % of control.

O=C(CNC(=O)Nc1cccc([N+](=O)[O-])c1)N/N=C/C=C/c1ccccc1 was tested, and the T/C [6] was 88 % of control and the T/C [8] was 88 % of control.

In the case of CCCCOS(=O)(=O)c1ccc(C)cc1, the T/C (endpoint: mean survival time, dose: 100.0 mg/kg/injection, schedule: Q04DX002 (ip), vehicle: Klucel (hydroxypropylcellulose) (HPC)) is reported as 93 % of control, the T/C (endpoint: mean survival time, dose: 200.0 mg/kg/injection, schedule: Q04DX002 (ip), vehicle: Klucel (hydroxypropylcellulose) (HPC)) is reported as 101 % of control and the T/C (endpoint: mean survival time, dose: 400.0 mg/kg/injection, schedule: Q04DX002 (ip), vehicle: Klucel (hydroxypropylcellulose) (HPC)) is reported as 90 % of control.

For O=C(O)CC(C(=O)O)c1ccc([N+](=O)[O-])cc1 (configuration not stated), the T/C [7] was 93 % of control, the T/C [8] was 93 % of control and the T/C [9] was 97 % of control.

For [NH-]C1CCCCC1[NH-].[NH-]C1CCCCC1[NH-].[Ni] (configuration not stated), the T/C [1] was 110 % of control.

In the case of CCCC(Sc1nc(N)nc2nc[nH]c12)C(=O)O (configuration not stated), the T/C [11] is reported as 103 % of control, the T/C [12] is reported as 110 % of control and the T/C [13] is reported as 118 % of control. The T/C (endpoint: mean survival time, dose: 150.0 mg/kg/injection, schedule: Q04DX003 (ip), vehicle: saline with Tween-80) was 151 % of control, the T/C (endpoint: mean survival time, dose: 300.0 mg/kg/injection, schedule: Q04DX003 (ip), vehicle: saline with Tween-80) was 156 % of control and the T/C (endpoint: mean survival time, dose: 400.0 mg/kg/injection, schedule: Q04DX003 (ip), vehicle: saline with Tween-80) was 168 % of control.

Cc1c(O)c2c(c(O)c1Cc1ccc(CN)cc1)C(=O)c1ccccc1C2=O was tested, and the T/C (endpoint: mean survival time, dose: 1.56 mg/kg/injection, schedule: Q01DX009 (ip), vehicle: water) was 103 % of control, the T/C (endpoint: mean survival time, dose: 3.13 mg/kg/injection, schedule: Q01DX009 (ip), vehicle: water) was 101 % of control and the T/C (endpoint: mean survival time, dose: 6.25 mg/kg/injection, schedule: Q01DX009 (ip), vehicle: water) was 95 % of control. For the same compound, the T/C (endpoint: mean survival time, dose: 12.5 mg/kg/injection, schedule: Q01DX009 (ip), vehicle: water) was 103 % of control and the T/C (endpoint: mean survival time, dose: 25.0 mg/kg/injection, schedule: Q01DX009 (ip), vehicle: water) was 87 % of control.

CC(=O)COc1ccccc1[N+](=O)[O-] was tested, and the T/C [3] was 108 % of control, the T/C [4] was 104 % of control and the T/C [5] was 112 % of control.

OCC(O)C(O)C(O)C(O)CO (configuration not stated) was tested, and the T/C [7] was 98 % of control, the T/C (endpoint: mean survival time, dose: 100.0 mg/kg/injection, schedule: Q04DX003 (ip), vehicle: saline) was 96 % of control and the T/C (endpoint: mean survival time, dose: 200.0 mg/kg/injection, schedule: Q04DX003 (ip), vehicle: saline with Tween-80) was 97 % of control. The T/C (endpoint: mean survival time, dose: 200.0 mg/kg/injection, schedule: Q04DX003 (ip), vehicle: saline) was 98 % of control, the T/C [9] was 98 % of control and the T/C (endpoint: mean survival time, dose: 400.0 mg/kg/injection, schedule: Q04DX003 (ip), vehicle: saline) was 96 % of control. The T/C (endpoint: median survival time, dose: 75.0 mg/kg/injection, schedule: Q01DX009 (ip), vehicle: saline with Tween-80) was 100 % of control, the T/C (endpoint: median survival time, dose: 150.0 mg/kg/injection, schedule: Q01DX009 (ip), vehicle: saline with Tween-80) was 97 % of control and the T/C (endpoint: median survival time, dose: 600.0 mg/kg/injection, schedule: Q01DX009 (ip), vehicle: saline with Tween-80) was 100 % of control.

For C1CC2OC2C1 (configuration not stated), the T/C [14] was 95 % of control, the T/C (endpoint: mean survival time, dose: 200.0 mg/kg/injection, schedule: Q01DX009 (ip), vehicle: acetone) was 97 % of control and the T/C (endpoint: mean survival time, dose: 400.0 mg/kg/injection, schedule: Q01DX009 (ip), vehicle: acetone) was 95 % of control.

In the case of COC(=O)CC/C=C\Cc1c(OC)c(C)c2c(c1OC=O)C(=O)OC2, the T/C [1] is reported as 108 % of control, the T/C [2] is reported as 108 % of control and the T/C (endpoint: median survival time, dose: 100.0 mg/kg/injection, schedule: Q04DX002 (ip), vehicle: saline with Tween-80) is reported as 112 % of control. The T/C (endpoint: median survival time, dose: 200.0 mg/kg/injection, schedule: Q04DX002 (ip), vehicle: saline with Tween-80) was 112 % of control.

With Nc1nc2c(ncn2-c2ccccc2F)c(=O)[nH]1 the T/C (endpoint: mean survival time, dose: 25.0 mg/kg/injection, schedule: Q01DX001 (ip), vehicle: saline with Tween-80) was 102 % of control, the T/C (endpoint: mean survival time, dose: 50.0 mg/kg/injection, schedule: Q01DX001 (ip), vehicle: saline with Tween-80) was 106 % of control and the T/C [3] was 94 % of control and 98 % of control.

O=C(CBr)Nc1c2c(nc3ccccc13)CCCC2 was tested, and the T/C (endpoint: mean survival time, dose: 75.0 mg/kg/injection, schedule: Q01DX001 (ip), vehicle: saline with Tween-80) was 101 % of control, the T/C (endpoint: mean survival time, dose: 150.0 mg/kg/injection, schedule: Q01DX001 (ip), vehicle: saline with Tween-80) was 104 % of control and the T/C (endpoint: mean survival time, dose: 300.0 mg/kg/injection, schedule: Q01DX001 (ip), vehicle: saline with Tween-80) was 94 % of control.

For Cc1csc(C)[n+]1C, the T/C (endpoint: mean survival time, dose: 25.0 mg/kg/injection, schedule: Q01DX009 (ip), vehicle: saline sonified) was 102 % of control, the T/C (endpoint: mean survival time, dose: 50.0 mg/kg/injection, schedule: Q01DX009 (ip), vehicle: saline sonified) was 104 % of control and the T/C [3] was 100 % of control. For the same compound, the T/C (endpoint: mean survival time, dose: 100.0 mg/kg/injection, schedule: Q01DX009 (ip), vehicle: saline sonified) was 98 % of control.

With CCOC(=O)Nc1nccs1 the T/C [10] was 98 % of control, the T/C [6] was 100 % of control and the T/C [7] was 98 % of control. The T/C (endpoint: mean survival time, dose: 100.0 mg/kg/injection, schedule: Q04DX003 (ip), vehicle: Klucel (hydroxypropylcellulose) (HPC)) was 101 % of control and the T/C (endpoint: mean survival time, dose: 200.0 mg/kg/injection, schedule: Q04DX003 (ip), vehicle: Klucel (hydroxypropylcellulose) (HPC)) was 97 % of control.

In the case of CNC/C(C)=C/Cl, the T/C (endpoint: mean survival time, dose: 50.0 mg/kg/injection, schedule: Q01DX009 (ip), vehicle: acetone) is reported as 96 % of control and the T/C [14] is reported as 90 % of control.
